# “And” between values parts separate entries of the source, which are not always exact repeats. Equal values may be shown once. Read-outs that look alike come from different tables or passages of the source.
# Key:
# In vitro release = format: physicochemical; conditions: for Cumulative Dex Release (%) / Cumulative HC Release (%): PBS; for Cumulative Dex Release (%), avg / Cumulative Dex Release (ng), avg / Cumulative Dex Release (%) / Cumulative HC Release (%): avg
# Protocol: Pellets for release studies. Crystalline drug dimers were weighed on a stainless steel coupon. In the case of blends with a second drug, the dimer and drug were mixed at the desired mass ratio with mortar and pestle prior to weighing. Samples were transferred to a heat press (Carver Laboratory Press). A PTFE mold containing an array of 1 mm diameter holes of 1 mm depth was placed on top of the melt, and pressure was applied for 2 min. Molded pellets were cooled to room temperature and punched out of the mold, yielding a pellet of 1 mm height × 1 mm diameter.
# Release studies were carried out using different media, including PBS (pH 7.4, Gibco), 100% FBS (Sigma, F1051), 1% FBS in PBS pH 7.4, and 3.6% BSA (Sigma, A7906) in PBS (pH 7.4, Gibco). […] Samples were incubated in release medium at 37 °C under constant agitation on an orbital shaker at 115 rpm (VWR). At designated timepoints, sampling was performed by complete removal of medium and replenishment with fresh buffer. Sampling timepoints included 24 h and then every 3–4 days thereafter. For PBS release conditions, samples were analyzed directly. For samples with protein (100% FBS, 1% FBS, 3.6% BSA), protein was precipitated by addition of acetonitrile. Samples were vortexed and centrifuged to separate extracted drug from precipitated protein. The supernatant was then analyzed for drug concentration by HPLC.
# [1] = test system: LPS-induced stimulation of PGE2 production by primary human monocytes; test: LPS induced monocyte activation (PGE2 ELISA); format: cell-based; conditions: for % Activity: Fig 4h, PGE2 production, one line per donor; for IC50: primary human monocytes, N=3, read-out: IC50, inhibition of LPS-induced PGE2 production
# Excerpt: Monocytes were isolated from whole peripheral blood donated by healthy volunteers. Protocols were approved by Health Sciences Research Ethics Board (REB) at the University of Toronto (ethics approval #22203). All experiments were repeated with three distinct donors who provided informed consent. Briefly, whole blood was layered on Histopaque-1077 (Sigma) and the mononuclear cell fraction was isolated by density centrifugation. Platelets were removed through a series of washes. Monocytes were seeded at a density of 200,000/well in a 96-well plate (Becton Dickinson). Medium was changed 2 h post-seeding to remove non-adherent cells. […] Dex derived from degraded Dex-TEG-Dex was prepared by dissolving Dex-TEG-Dex in ethanol at 10 mg/ml, adding to culture medium to achieve a concentration of 10 µg/ml, and subsequent incubation of the solution at 37 °C and 5% CO2 until the dimer had fully degraded, as confirmed by HPLC. […] Samples were incubated for 15 min at 37 °C and 5% CO2, followed by addition of a 2 µl lipopolysaccharide stock solution (LPS, Sigma) to obtain a final concentration of 50 µg/ml. Following overnight exposure to LPS, supernatant was collected and analyzed for PGE2 using a PGE2 ELISA kit according to the manufacturer’s instructions (R&D Systems).
# [2] = cited from earlier work
# [3] = test system: vascular endothelial growth factor (VEGF) induced blood-retinal barrier breakdown; test: Rabbit pharmacodynamics, VEGF-induced vascular leakage; format: in vivo, Dutch Belted rabbits; parameters: key to FA Scoring: 0: major vessels straight, some tortuosity of smaller vessels, no vessel dilation; 1: increased tortuosity of major vessels and/or some vessel dilation; 2: leakage between major vessels, significant vessel dilation; 3: leakage between major and minor vessels, minor vessels still visible; 4: leakage between major and minor vessels, minor vessels poorly/not visible; conditions: single eyes, Fig 9b
# Protocol: Pharmacodynamics. Rabbit pharmacodynamics studies were performed at Absorption Systems California (San Diego, CA, USA). All studies were conducted in compliance with relevant ethical regulations, including the USDA Animal Welfare Act (i.e., relevant sections of Section 9, Part 1, 2, and 3 of the Code of Federal Regulations) and in compliance with Absorption Systems’ Animal Welfare Assurance filed with the National Institutes of Health. Protocols were reviewed and approved by Absorption Systems’ Institutional Animal Care and Use Committee (IACUC) prior to the initiation of procedures. Treatment of animals was in accordance with conditions specified in the Guide for Care and Use of Laboratory Animals (NRC, 2011, National Academy Press). Animals were anesthetized with intramuscular ketamine hydrochloride (15-20 mg/kg) and xylazine (5 mg/kg) prior to test article injection or vascular leakage induction. The eye area was surgically prepped with 5% betadine and rinsing with balanced salt solution, followed by administration of 1–2 drops of topical proparacaine hydrochloride (0.5%). […] Test articles (27 G × 6 mm, 30 G × 6 mm, and 32 G × 6 mm Dex-TEG-Dex extruded rods, or Ozurdex®) were injected intravitreally in Dutch Belted rabbits (male, 1.84–2.49 kg, 5–6 months) on Day 0 and vascular leakage was induced by an intravitreal injection of VEGF (500 ng/eye) at acute and chronic timepoints (1 week, 2.5, 4.5, 6, 9, 12, and/or 18 months) post-implantation. Post-injection analgesia was provided by 0.02-0.05 mg/kg IM/SC buprenorphine. Negative control rabbits received a sham injection while positive control rabbits received a 2 mg solution dose of triamcinolone acetonide (Kenalog-40). Ophthalmic exams, including fundus microscopy and slit lamp microscopy, were carried out over the 3 days post-VEGF induction and vascular leakage was measured by fluorescein angiography on the third day post-VEGF induction. Eyes were graded based on fundus and fluorescein angiography images using a scoring system as follows[76]: 0 – major vessels straight, some tortuosity of smaller vessels, no vessel dilation; 1 – increased tortuosity of major vessels and/or some vessel dilation; 2 – leakage between major vessels, significant vessel dilation; 3 – leakage between major and minor vessels, minor vessels still visible; and 4 – leakage between major and minor vessels, minor vessels poorly/not visible.
# [4] = rabbit, in vivo
# Protocol: Analysis of samples was conducted using a SCIEX API 5000 mass spectrometer (Applied Biosystems/MDS Sciex), Shimadzu LC-20ADXR HPLC pumps, Shimadzu SCL-10A controller, and HTS-PAL autoinjector (CTC Analytics). Chromatography was performed using a Waters X-Bridge C-18 (3.5 µm; 100 × 2.1 mm) column equipped with a Phenomenex KrudKatcher ULTRA HPLC In-Line Filter (Part AF0-8497). The column was held at a temperature of 40 °C, while the autosampler compartment was maintained at 4 °C. Mobile phases consisted of: (A) 95:5 H2O:MeOH with 2 mM Ammonium Acetate (NH4OAc) and (B) 85:10:5 MeOH:H2O:MeCN with 2 mM NH4OAc. A gradient elution profile was employed, following the trend of: (0 min 30% B), (0.50 min 30% B), (2.50 min 65% B), (2.51 min 100% B), (4.50 min 100% B), (4.51 min 30% B), (6.50 min 30% B). Flow was constant at 0.6 mL min^-1 with an injection volume of 10 µL. For MS parameters, the system was operated in positive ion mode with a TurboIonSpray probe monitoring transitions (±0.2 AMU) of m/z 393.2 → 373.2 for Dex and 397.3 → 377.2 for the Dex-d4 deuterated internal standard. Analyst Version 1.4.2 (Applied Biosystems-MDS Sciex) was used for instrument control, data acquisition, and peak integrations, while calculations including peak area ratios, standard curve regressions, sample concentration values, and descriptive statistics were performed with the assistance of the ALIS2004 validated LIMS.
# Dex and internal standard (Dex-d4) were extracted from vitreous humor on ice using protein precipitation. Samples were initially centrifuged at approximately 1500 rcf for 5 min to remove any interfering particulates. Stepwise, the protocol for extraction from vitreous humor was to (1) pipette 50 µL of vitreous humor into an extraction tube; (2) add 13 µL H2O and vortex to mix; (3) add 25 µL internal standard spiking solution (100 ng/mL Dex-d4 in a 1:1 solvent of MeOH:H2O); (4) add 25 µL of make-up reagent (1:1 mixture of MeOH:H2O); (5) vortex mix for 5-10 s at a speed setting of 4 or 5; (6) centrifuge at ~60 rcf for 2 min; (7) add 300 µL of 9:1 MeOH:5 mM NH4OAc at pH 7 to precipitate proteins; (8) cap and vortex mix at full speed for 2 min; (9) Centrifuge at approximately 2700 rcf for 5 min; (10) transfer 300 µL of supernatant to a separate tube; (11) vortex the collected supernatant for 30 s at a low to moderate speed; (12) centrifuge at ~1500 rcf for 5 min; (13) store prepared extract at 4 °C until analysis by LC-MS/MS.
# Pharmacokinetics. […] Animals were anesthetized with ketamine (up to ~50 mg/kg) and xylazine (up to ~10 mg/kg). Eyes were surgically prepared before intravitreal procedures with 5% betadine and topical anesthetic eye drops (proparacaine hydrochloride, 0.5%). Prior to test article administration, pupils were dilated with topical application of one drop each of 10% phenylephrine and 1% tropicamide on each cornea.
# Implants (30 G × 6 mm Dex-TEG-Dex extruded rods, Ozurdex®) were injected (30 G needle for Dex-TEG-Dex, 22 G needle for Ozurdex®) intravitreally into the eyes of New Zealand White rabbits (female, 1.5–2.5 kg) with terminal timepoints of 1 and 2 weeks and 1, 2, 3, 6, 9, 12, and 14 months. Ocular tissues and plasma were collected at each timepoint and analyzed for Dex by LC/MS/MS. Whole globe eyes were collected into centrifuge tubes and remained frozen for a minimum of 24 h before dissection and tissue collection. During dissection, vitreous humor containing any remaining test article was collected frozen into pre-weighed centrifuge tubes and stored at −80 °C until further processing.
# [5] = Fig 6a heterodimer pellet, 4 ml PBS, Day 1, samples and avg
# [6] = Fig 6a heterodimer pellet, 4 ml PBS, Day 1, samples and avg, mean
# [7] = Fig 6a heterodimer pellet, 4 ml PBS, Day 5, samples and avg
# [8] = Fig 6a heterodimer pellet, 4 ml PBS, Day 5, samples and avg, mean
# [9] = Fig 6a heterodimer pellet, 4 ml PBS, Day 7, samples and avg
# [10] = Fig 6a heterodimer pellet, 4 ml PBS, Day 7, samples and avg, mean
# [11] = Fig 6a heterodimer pellet, 4 ml PBS, Day 11, samples and avg
# [12] = Fig 6a heterodimer pellet, 4 ml PBS, Day 11, samples and avg, mean
# [13] = Fig 6a heterodimer pellet, 4 ml PBS, Day 14, samples and avg
# [14] = Fig 6a heterodimer pellet, 4 ml PBS, Day 14, samples and avg, mean
# [15] = Fig 6a heterodimer pellet, Day 1
# [16] = Fig 6a heterodimer pellet, Day 5
# [17] = Fig 6a heterodimer pellet, Day 7
# [18] = Fig 6a heterodimer pellet, Day 11
# [19] = Fig 6a heterodimer pellet, Day 14
smiles,measurement,setting,value
"C[C@@H]1C[C@H]2[C@@H]3CCC4=CC(=O)C=C[C@]4(C)[C@@]3(F)[C@@H](O)C[C@]2(C)[C@@]1(O)C(=O)CO [Dex, dexamethasone, reference compound]","Cumulative Dex Release (%), avg","In vitro release; Day 1, Fig 6c",0.0437%
same,"Cumulative Dex Release (ng), avg","In vitro release; Day 1, Fig 6c",365.83 ng
same,Cumulative Dex Release,"In vitro release; Day 1, single replicates, Fig 6c",489.28 ng and 390.83 ng and 217.38 ng
same,"Cumulative Dex Release (%), avg","In vitro release; Day 3, Fig 6c",0.15%
same,"Cumulative Dex Release (ng), avg","In vitro release; Day 3, Fig 6c",1234.13 ng
same,Cumulative Dex Release,"In vitro release; Day 3, single replicates, Fig 6c",1469.66 ng and 1518.28 ng and 714.45 ng
same,"Cumulative Dex Release (%), avg","In vitro release; Day 8, Fig 6c",0.45%
same,"Cumulative Dex Release (ng), avg","In vitro release; Day 8, Fig 6c",3751.80 ng
same,Cumulative Dex Release,"In vitro release; Day 8, single replicates, Fig 6c",4281.72 ng and 3939.60 ng and 3034.10 ng
same,"Cumulative Dex Release (%), avg","In vitro release; Day 10, Fig 6c",0.56%
same,"Cumulative Dex Release (ng), avg","In vitro release; Day 10, Fig 6c",4651.15 ng
same,Cumulative Dex Release,"In vitro release; Day 10, single replicates, Fig 6c",5032.13 ng and 5126.71 ng and 3794.60 ng
same,"Cumulative Dex Release (%), avg","In vitro release; Day 14, Fig 6c",0.78%
same,"Cumulative Dex Release (ng), avg","In vitro release; Day 14, Fig 6c",6525.91 ng
same,Cumulative Dex Release,"In vitro release; Day 14, single replicates, Fig 6c",7249.57 ng and 6858.64 ng and 5469.52 ng
same,% Activity,"[1]; 0.05 nM, 50 pM",141.66% and 109.12% and 86.18%
same,% Activity,"[1]; 0.1 nM, 0.0001 µM",118.30% and 90.43% and 82.49%
same,% Activity,"[1]; 0.5 nM, 0.0005 µM",96.26% and 65.64% and 103.04%
same,% Activity,"[1]; 1 nM, 0.001 µM",66.03% and 45.78% and 57.92%
same,% Activity,"[1]; 5 nM, 0.005 µM",74.59% and 37.73% and 56.77%
same,% Activity,"[1]; 10 nM, 0.01 µM",69.04% and 28.95% and 33.87%
same,% Activity,"[1]; 100 nM, 0.1 µM",42.88% and 13.38% and 14.89%
same,IC50,[1]; Monocyte,1.52 ± 1.24 nM
"OCCOCCOCCO [TEG, triethylene glycol]",toxicity by systemic routes of administration,[2],no significant adverse toxicity
CC1CC2C3CCC4=CC(=O)C=CC4(C)C3(F)C(O)CC2(C)C1(O)C(=O)COC(=O)OCCOCCOCCOC(=O)OCC(=O)C1(O)C(C)CC2C3CCC4=CC(=O)C=CC4(C)C3(F)C(O)CC21C (centres unmarked) [Dex-TEG-Dex (30G x 6 mm implant)],FA Scoring,[3]; 7 days,0
same,FA Scoring,[3]; 136 days,0
same,FA Scoring,[3]; 360 d,2 and 3 and 4 and 0 and 1
C[C@@H]1C[C@H]2[C@@H]3CCC4=CC(=O)C=C[C@]4(C)[C@@]3(F)[C@@H](O)C[C@]2(C)[C@@]1(O)C(=O)CO [Dex from Degraded Dex-TEG-Dex],% Activity,"[1]; 0.05 nM, 50 pM",133.56% and 95.05% and 109.87%
same,% Activity,"[1]; 0.1 nM, 0.0001 µM",71.31% and 70.97% and 72.68%
same,% Activity,"[1]; 0.5 nM, 0.0005 µM",92.91% and 70.93% and 94.26%
same,% Activity,"[1]; 1 nM, 0.001 µM",74.23% and 63.23% and 72.65%
same,% Activity,"[1]; 5 nM, 0.005 µM",59.75% and 37.69% and 27.50%
same,% Activity,"[1]; 10 nM, 0.01 µM",60.49% and 37.84% and 31.81%
same,% Activity,"[1]; 100 nM, 0.1 µM",63.88% and 16.49% and 17.83%
same,IC50,[1]; listed as Dex from Dex-TEG-Dex,0.93 ± 0.49 nM
CC1CC2C3CCC4=CC(=O)C=CC4(C)C3(F)C(O)CC2(C)C1(O)C(=O)COC(=O)OCCOCCOCCOC(=O)OCC(=O)C1(O)CCC2C3CCC4=CC(=O)CCC4(C)C3C(O)CC21C (centres unmarked) [Dex-TEG-HC],Cumulative Dex Release,In vitro release; [5],81.55 ng and 74.59 ng and 99.31 ng
same,Cumulative HC Release,In vitro release; [5],224.52 ng and 206.99 ng and 167.90 ng
same,Cumulative Dex Release,In vitro release; [6],85.15 ng
same,Cumulative HC Release,In vitro release; [6],199.80 ng
same,Cumulative Dex Release,In vitro release; [7],2326.27 ng and 2325.49 ng and 1831.14 ng
same,Cumulative HC Release,In vitro release; [7],2952.91 ng and 3019.31 ng and 2390.05 ng
same,Cumulative Dex Release,In vitro release; [8],2160.97 ng
same,Cumulative HC Release,In vitro release; [8],2787.43 ng
same,Cumulative Dex Release,In vitro release; [9],3098.36 ng and 2980.56 ng and 2543.37 ng
same,Cumulative HC Release,In vitro release; [9],4047.00 ng and 4113.39 ng and 3426.84 ng
same,Cumulative Dex Release,In vitro release; [10],2874.10 ng
same,Cumulative HC Release,In vitro release; [10],3862.41 ng
same,Cumulative Dex Release,In vitro release; [11],4911.68 ng and 4696.17 ng and 4037.68 ng
same,Cumulative HC Release,In vitro release; [11],6283.65 ng and 6328.14 ng and 5362.18 ng
same,Cumulative Dex Release,In vitro release; [12],4548.51 ng
same,Cumulative HC Release,In vitro release; [12],5991.32 ng
same,Cumulative Dex Release,In vitro release; [13],6135.25 ng and 5788.05 ng and 5026.44 ng
same,Cumulative HC Release,In vitro release; [13],7866.10 ng and 7754.88 ng and 6681.74 ng
same,Cumulative Dex Release,In vitro release; [14],5649.91 ng
same,Cumulative HC Release,In vitro release; [14],7434.24 ng
same,Cumulative Dex Release (%),In vitro release; [15],0.0441%
same,Cumulative HC Release (%),In vitro release; [15],0.11%
same,Cumulative Dex Release (%),In vitro release; [16],1.12%
same,Cumulative HC Release (%),In vitro release; [16],1.51%
same,Cumulative Dex Release (%),In vitro release; [17],1.49%
same,Cumulative HC Release (%),In vitro release; [17],2.09%
same,Cumulative Dex Release (%),In vitro release; [18],2.35%
same,Cumulative HC Release (%),In vitro release; [18],3.25%
same,Cumulative Dex Release (%),In vitro release; [19],2.92%
same,Cumulative HC Release (%),In vitro release; [19],4.03%
CC1CC2C3CCC4=CC(=O)C=CC4(C)C3(F)C(O)CC2(C)C1(O)C(=O)COC(=O)OCCOCCOCCOC(=O)OCC(=O)C1(O)C(C)CC2C3CCC4=CC(=O)C=CC4(C)C3(F)C(O)CC21C (centres unmarked) [Dex-TEG-Dex 30G x 6 mm implant],Dex in aqueous humor (ng/ml),[4],BQL
same,Dex in retina (ng/g),[4],BQL
same,Dex in vitreous humor (ng/ml),[4],BQL
